This note sets out measurements from patent US11718610B2, “Compounds containing benzosultam” (MEDSHINE DISCOVERY INC., priority 2020, dated 2023).

For assay [1], the system named is human lung cancer Calu-6 cell subcutaneous xenograft tumor. The assay can be described thus: In vivo pharmacodynamic experiment, BALB/c nude mouse model of subcutaneous xenograft tumors of human lung cancer Calu-6 cells. The following applies: 50 mg/kg oral (PO) once a day (QD), Calu-6 xenograft in BALB/c nude mice, vs solvent control; P<0.01. The method, then: Experimental Embodiment 7: In Vivo Pharmacodynamic Experiment of the BALB/c Nude Mouse Model of Subcutaneous Xenograft Tumors of Human Lung Cancer Calu-6 Cells
Age of arrival: 6 to 8 weeks old
Cells: Calu-6 cells of human lung cancer were cultured in vitro, and 0.2 Units/mL bovine insulin, 10% fetal bovine serum were added to EMEM culture medium in a 37° C. and 5% CO2 incubator for culture. Conventional digestion with trypsin-EDTA was performed twice a week for passage. When the cell saturation was 80%-90% and the number of the cells reached the requirement, and the cells were collected, counted, and seeded.
Cell inoculation: 0.2 mL of Calu-6 cell (mixed in a ratio of 1:1 with matrix gel) was subcutaneously inoculated on the right back of each mouse, and group administration was started when the average tumor volume reached […],
Tumor diameters were measured with vernier calipers twice a week. The calculation formula of tumor volume was: V=0.5a×b^2, and a and b represent the long and short diameters of the tumor, respectively.
The tumor inhibition efficacy of the compounds was evaluated by TGI (%) or relative tumor proliferation rate T/C (%). Relative tumor proliferation rate T/C (%)=TRTV/CRTV×100% (TRTV: RTV in the treatment group; CRTV: RTV in the negative control group). The relative tumor volume (RTV) was calculated according to the results of tumor measurement, and the formula was RTV=Vt/V0, wherein V0 was the tumor volume measured at the time of group administration (i.e., D0), and Vt was the tumor volume measured at a certain measurement, and TRTV and CRTV were taken on the same day.
TGI (%), reflecting the tumor growth inhibition rate. TGI (%)=[1−(average tumor volume at the end of administration in a treatment group−average tumor volume at the beginning of administration in this treatment group)/(average tumor volume at the end of treatment in a solvent control group−average tumor volume at the beginning of treatment in this solvent control group)]×100%.
Statistical analysis was based on the data of RTV at the end of the experiment, and SPSS software was used for analysis. One-way ANOVA was used for comparison between two groups, and the variance was uneven (there was significant difference in F value), and Games-Howell method was used to test, p<0.05 was considered a significant difference.

In the next assay the test system is A375 cells. The assay can be described thus: A375 (BRAF V600E) antiproliferative activity experiment (CellTiter-glo). In kind it is cell-based. The following applies: Homo sapiens, A-375, 120 h, cultured 5 days. The method, then: Experimental Embodiment 3: A375 (BRAF^V600E) Antiproliferative Activity Experiment
Cell line A375 (purchased from Procell). DMEM culture medium, penicillin/streptomycin antibiotics were purchased from Vicente, and fetal bovine serum was purchased from Biosera. CellTiter-glo (cell viability chemiluminescence detection reagent) reagent was purchased from Promega.
A375 cells were seeded in a white 96 well plate with […] of cell suspension per well containing 2000 of A375 cells. The cell plate was placed in a carbon dioxide incubator and cultured overnight. The compound to be tested was diluted 3-fold to the 9th concentration with a pipette, that is, diluted from 6 mmol to 0.91 μmol, and a double-duplicate experiment was set-up, 78 μmol of culture medium was added to the middle plate, then 2 μmol of gradient dilution compound per well was transferred to the middle plate according to the corresponding position, and 20 μmol per well was mixed and transferred to the cell plate. The concentration of the compound transferred to the cell plate ranged from 30 μmol to 4.57 nmol. The cell plate was placed in a carbon dioxide incubator and cultured for 5 days. Another cell plate was prepared, and the signal value was read as the maximum value (max value in the following equation) on the day of administration to participate in data analysis, 25 μmol of cell viability chemiluminescence detection reagent was added to each well of the cell plate and incubated at room temperature for 10 minutes to stabilize the luminescence signal. A multi-marker analyzer reading was used. After the incubation of the cell plate added with the compound was finished, 25 μmol of cell viability chemiluminescence detection reagent was added to each well of the cell plate and incubated at room temperature for 10 minutes to stabilize the luminescence signal. A multi-marker analyzer reading was used.
The equation (Sample−Min)/(Max−Min)*100% was used to convert the original data into inhibition rate, and the IC50 value could be obtained by curve fitting with four parameters (obtained by “log (inhibitor) vs. response—variable slope” mode in GraphPad Prism).

The test system of another assay is HCT116 cells. In words: HCT116 (Kras G13D) antiproliferative activity experiment (CellTiter Glo). In kind it is cell-based. The following applies: Homo sapiens, HCT-116, 72 h, cultured 3 days. How it is done:
Experimental Embodiment 2: HCT116 (Kras^G13D) Antiproliferative Activity Experiment
(1) cell culture medium: 89% Mc′Coy 5A, 10% fetal bovine serum and 1% penicillin-streptomycin;
(2) culture medium and trypsin were preheated in a 37° C. water bath;
(3) the culture medium was removed in the cell culture flask and washed once with 1 mL of trypsin;
(4) 1 mL of trypsin was added to the cell culture flask, and the cell culture flask was shaken gently, and the trypsin was removed after full contact with the cell, and then the culture flask was placed into a 37° C. incubator containing 5% CO2 for about 1 minute;
(5) the cells were resuspended with 2 mL of cell culture medium, and about 0.01 mL of cell suspension was taken out for counting;
(6) the cell suspension was diluted with culture medium to a cell density required for plating of 2.5×10^4 cells per mL;
(7) 100 μL of culture medium was added to each well around the cell plate, and 80 μL of cell suspension was added to the other wells, and placed in a 37° C. incubator containing 5% CO2 for overnight culture.
(8) The required cell amount and culture medium were taken based on the new T75 culture flask for continued culture.
(1) the compound to be tested was prepared into […] solution with DMSO;
(2) 9 concentration gradients and 3-fold dilutions were performed on the compounds, that is, a double-duplicate experiment was set from 6 mmol to 2.7 μmol, and 78 μL of culture medium was added to the middle plate, and then 2 μL of gradient diluted compound per well was transferred to the middle plate according to the corresponding position, and after mixing, 20 μL per well was transferred to the cell plate, and the final concentration of the compound transferred to the cell plate was 30 μmol to 13.7 nmol. The cell plate was placed in a carbon dioxide incubator and cultured for another 3 days.
(1) CTG was added and the plate was read: 20 μL of CellTiter Glo was added to each well of the cell plate, and the cell plate was shaken in the dark for 10 min;
(2) plates were read on Victor Nivo.
The equation (Sample-Min)/(Max-Min)*100% was used to convert the original data into inhibition rate, and the IC50 value could be obtained by curve fitting with four parameters (obtained by “log (inhibitor) vs. response—variable slope” mode in GraphPad Prism).

The structures appear in SMILES notation.

With `COc1cc(F)cc([C@@H](CO)NC(=O)[C@@H](C)N2Cc3ccc(-c4nc(NC5CCOCC5)ncc4Cl)cc3S2(=O)=O)c1` [Compound 1], the “TGI (tumor growth inhibition rate)” value in assay [1] was 107%. For the same compound, the IC50 in the assay on A375 cells turned out to be 15 nM; with HCT116 cells, 103 nM.
For `COc1cc(F)cc([C@@H](CO)NC(=O)[C@@H](C)N2Cc3ccc(-c4nc(NC5CCOCC5)ncc4Br)cc3S2(=O)=O)c1` [Compound 3] the same measures were 110%, 13 nM and 138 nM.
The like results for `[2H]C1([2H])CC(Nc2ncc(Cl)c(-c3ccc4c(c3)S(=O)(=O)N([C@H](C)C(=O)N[C@H](CO)c3cc(F)cc(OC)c3)C4)n2)CC([2H])([2H])O1` [Compound 9] were, in that order, 108%, 14 nM and 105 nM.
For the compound `COc1cc(F)cc([C@@H](CO)NC(=O)[C@@H](C)N2Cc3ccc(-c4nc(N[C@H]5CCOC[C@H]5F)ncc4Cl)cc3S2(=O)=O)c1` [Compound 11], in assay [1], the “TGI (tumor growth inhibition rate)” value was 109%. Also, the IC50 in the assay on A375 cells worked out at 16 nM; in the assay with HCT116 cells it was 123 nM.

The IC50 is the point on the concentration scale where inhibition reaches its midpoint. The low end stands for inhibition by little substance, the high end for a need for much substance.
